These results are taken from PubChem BioAssay (NCI).

Molecules are shown by their SMILES. Several values for one entry are separate records, joined by “and”; a condition that tells them apart may be missing. Equal values may be shown once.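 Test compounds were applied to cells in 96-well plates for 48 hours at 5 doses. At the GI50, growth is halved. TGI marks complete inhibition of growth.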

Holding throughout (assay): NCI-60 cell line screen, 48 h
In test [1] the test system is A549 NSCLC.
Test [2] has as its system EKVX NSCLC.
Test [3] deals with HCC-2998 colon.
The test system of test [4] is HCT-15 colon.
Test [5] relates to HT29 colon.
The subject of test [6] is IGROV1 ovarian.
Test [7] has as its system RPMI-8226 leukemia.
Test [8] has as its system SF-295 CNS.
Test [9] concerns SR leukemia.
In test [10] the test system is TK-10 renal.

As for `Nc1cc(C(F)(F)F)c(-c2cc(N3CCOCC3)nc(N3CCOCC3)n2)cn1`, the GI50 is 1.17 µM and 1.29 µM in test [1]; 0.721 µM and 1.22 µM in test [2]; 0.85 µM and 1.12 µM in test [3]; 0.523 µM and 0.826 µM in [4]; 0.547 µM and 0.531 µM in [5]; 0.227 µM and 0.28 µM in [6]. The GI50 is 1.31 µM and 1.47 µM in test [7]; 0.463 µM and 0.613 µM in test [8]; 0.397 µM and 0.41 µM in test [9]; 0.303 µM and 0.338 µM in [10]. The TGI in test [1] is 7.06 µM and 4.99 µM; in test [3], 4.14 µM and 5.45 µM; in test [4], above 41.1 µM; in [5], > 7.41 µM and 3.66 µM; in test [7] it was above 23.1 µM; in test [8], 2.51 µM and 4.26 µM. In addition, the TGI in test [9] was above 30 µM; in [10], 2.75 µM and 2.15 µM.
For `CCOC(=O)C(NO)C(Sc1ccccc1)c1ccc(OC)cc1` (configuration not stated), the TGI in test [1], in test [2], in test [3], in test [4], in [5] and in test [6] was above 100 µM each time. In addition, the TGI in [7], in test [8], in test [9] and in test [10] was above 100 µM throughout.
As for `COc1cc(/C=C/C(=O)N2CCC=CC2=O)cc(OC)c1OC`, the GI50 in test [1] is 8.57 µM; in test [2], 2.94 µM; in test [3], 1.77 µM; in [4], 1.83 µM; in [5], 2.98 µM; in test [6], 2.21 µM. Besides, the GI50 in test [7] was 1.5 µM; in [8], 6.37 µM; in [9], 1.75 µM; in test [10] it was 2.99 µM. Further, the TGI amounted to 22.8 µM in test [1]; 14.2 µM in test [2]; 3.56 µM in test [3]; 5.01 µM in [4]; 9.08 µM in test [5]; 11.2 µM in test [6]. Besides, the TGI in test [7] is 4.81 µM; in [8] it was 21.1 µM; in test [9], above 100 µM; in [10] it was 6.76 µM.
Consider `O=Cc1c(-c2ccccc2)[nH]c2ccccc2c1=O`, for which the TGI in test [1], in test [2], in test [3], in test [4], in [5] and in test [6] was above 100 µM each time. Moreover, the TGI was 85.6 µM in [7], above 100 µM in test [8], 37.4 µM in [9] and above 100 µM in [10].
For `CCOC(=O)/C(C#N)=C1\SS/C(=C(/C#N)C(=O)OCC)S1`, the GI50 in test [1] was 40 µM; in test [2] it was 19.6 µM; in test [3], 20.1 µM; in [4], 18 µM; in test [5] it was 3.92 µM; in [6] it was 14.2 µM. Moreover, the GI50 in [7] is 19.9 µM; in test [8], above 100 µM; in test [9] it was 3.59 µM; in test [10], 6.81 µM. Also, the TGI in test [1] was above 100 µM; in test [2], 50.4 µM; in test [3], 39.9 µM; in test [4], 61.4 µM; in test [5], 22.3 µM; in test [6], 33 µM. Further, the TGI in [7] was 73.5 µM; in test [8] it was above 100 µM; in [9], above 100 µM; in test [10] it was 20.3 µM.
Take `Cc1ccc(-c2nc(N3CCNCC3)c3oc(-c4ccccc4)nc3n2)cc1`: the GI50 was 1.66 µM in test [1]; 3.94 µM in test [2]; above 100 µM in test [3]; 1.69 µM in test [4]; 1.78 µM in [5]; 1.87 µM in test [6]. For the same molecule, the GI50 in [7] is 2.16 µM; in test [8], 1.69 µM; in test [9] it was 1.26 µM; in test [10], 1.68 µM. Further, the TGI in [1] is 3.13 µM; in [2] it was above 100 µM; in test [3] it was above 100 µM; in test [4] it was 3.2 µM; in [5], 3.32 µM; in test [6] it was 3.64 µM. Further, the TGI was 4.77 µM in test [7], 3.16 µM in [8], 3.24 µM in test [9] and 3.09 µM in test [10].
Regarding `Cc1ccc(Cl)cc1NC(=O)c1cc2ccccc2cc1O`, the GI50 is 0.418 µM in test [1]; 0.342 µM in [2]; 0.692 µM in test [3]; 0.506 µM in test [4]; 3.37 µM in test [5]; 0.189 µM in test [6]. Moreover, the GI50 is 0.106 µM in test [7], 1.14 µM in test [8], 0.217 µM in [9] and 0.948 µM in [10]. The TGI in [1] is above 100 µM; in test [2] it was 4.51 µM; in test [3], 2.47 µM; in test [5], 14.2 µM; in test [6], 3.95 µM; in test [7], 0.354 µM. In addition, the values for the TGI in [8], in [9] and in test [10] were 3.57 µM, 1.21 µM and 4.46 µM, respectively.
Consider `COc1cc(/C=C/C(=O)/C=C/c2cc3ccc(Cl)cc3n(Cc3ccccc3)c2=O)ccc1O`, for which the GI50 in test [1] was 2.05 µM; in test [2] it was 2.11 µM; in test [3], 1.98 µM; in test [4], 1.24 µM; in test [5], 0.424 µM; in test [6], 1.74 µM. Further, the GI50 in test [7] was 1.23 µM; in test [8], 3 µM; in [9], 0.457 µM; in [10] it was 2.44 µM. The TGI stood at 5.03 µM in test [1]; 4.67 µM in [2]; 3.48 µM in [3]; 4.01 µM in test [4]; 1.68 µM in [5]; 4.53 µM in test [6]. For the same molecule, the TGI in test [7] was 10.9 µM; in test [8], 10.8 µM; in test [9] it was above 100 µM; in test [10], 5.5 µM.
